This is an account of results in US7510836B2, “Alpha arteether resistance domain” (priority 2003, dated 2009).

In brackets after ≈: the same amount, converted by molar mass.

One experiment has as its system E. coli CA8000. Description: Minimum inhibitory concentration (cross resistance). The class given is cell-based. To be noted: Escherichia coli; strain CA8000. An excerpt:
(§1) The minimum inhibitory concentrations (MIC) of the quinolone and fluoroquinolone antibiotics were quantified for different strains and compared among each other. The differential response indicate the measure of resistance and sensitivity. Higher MIC indicate more resistance.

Another experiment relates to E. coli DH5a. Described as above. To be noted: Escherichia coli; strain DH5a. The class given is cell-based.
From the text: as §1

A further experiment concerns E. coli ET8000. Described as above. The class given is cell-based. As to conditions: Escherichia coli; strain ET8000.
From the text: as §1

The test system of the next experiment is E. coli NK5819. The experiment is described as above. The format is cell-based. To be noted: Escherichia coli; strain NK5819.
From the text: as §1

Another experiment relates to E. coli mutant CA80010. The experiment is described as above. The format is cell-based. As to conditions: Escherichia coli, read-out: minimum inhibitory concentration (MIC).
From the text: (§2) In order to develop an arteether resistant mutants from an arteether sensitive strains a reverse strategy was applied. Quinoline/fluoroquinolone (Q/FQs) resistant strains were developed spontaneously i.e. screening overnight log phase culture of the Quinolone/fluoroquinolone sensitive i.e. arteether resistant strain (E coli CA 8000) on the poison agar plate of the Q/FQs. The Q/FQ resistant mutants which appeared on the poison agar plates were first purified through single colony purification and then checked for their arteether sensitivity. These arteether sensitive mutants on the contrary when checked for their Q/Fqs resistance they show different level of Q/FQs resistance.
as §1

A further experiment relates to E. coli mutant CA80012. The description is as above. The class given is cell-based. As to conditions: Escherichia coli, read-out: minimum inhibitory concentration (MIC).
From the text: as §2, §1

Another experiment deals with E. coli mutant CA8001. Described as above. The class given is cell-based. As to conditions: Escherichia coli; strain CA8001.
From the text: as §2, §1

Another experiment concerns E. coli mutant CA8002. The experiment is described as above. The format is cell-based. As to conditions: Escherichia coli; strain CA8002.
From the text: as §2, §1

For another experiment, the system named is E. coli mutant CA8003. The description is as above. As to conditions: Escherichia coli; strain CA8003. The format is cell-based.
From the text: as §2, §1

The next experiment concerns E. coli mutant CA8005. The description is as above. To be noted: Escherichia coli; strain CA8005. The class given is cell-based.
From the text: as §2, §1

For the next experiment, the system named is E. coli mutant CA8006. Described as above. As to conditions: Escherichia coli; strain CA8006. The format is cell-based.
From the text: as §2, §1

Another experiment relates to E. coli mutant CA8007. Described as above. The class given is cell-based. As to conditions: Escherichia coli; strain CA8007.
From the text: as §2, §1

Another experiment deals with E. coli mutant CA8009. The description is as above. The format is cell-based. To be noted: Escherichia coli; strain CA8009.
From the text: as §2, §1

Experiment [1] has as its system E.coli strain CA 8000 (Gyr+). Kind of experiment: Phenotype of strain (resistance or sensitivity). The class given is cell-based, Escherichia coli. To be noted: E.coli CA 8000 (Gyr+). As to the method:
To ascertain the involvement of gyrA mutation, another E.coli strain NK 5819 which is also GyrA″ and nalidixic acid resistant was tested for arteether sensitivity. As expected, strain NK5819 was also sensitive only to a-isomer of arteether. […] The assays for arteether sensitivity was performed by the standard single disk diffusion method (Bauer et al, 1966). As a next step, we isolated gyrA mutants of E.coli strain CA 8000, which is otherwise Gyr+ and nalidixic acid sensitive. The gyrA mutants of CA8000 were isolated as nalidixic acid resistant colonies (20 ug/ml), after mutagenic treatment with NTG ([…]). The isolated CA8000 gyrA mutants were also sensitive only to a isomer of arteether. […] To define precisely the involvement of gyr genes only in the a-arteether sensitivity, we utilised two recombinant clones (pMK 90 and pMK47 containing functional gyr A and gyrB genes respectively) in trans-complementation assays. For this purpose, we mobilized the plasmid clones into the E.coli gyr mutant strains. The resulting transformants were now nalidixic acid sensitive and a-arteether resistant. This constituted the direct evidence supporting our observation that DNA gyrase enzyme alone is involved in conferring a-arteether sensitivity to E.coli strain. […] DNA gyrase enzyme is essential for the bacterial growth. […]

In another experiment the test system is malaria. As to conditions: antimalarial; cited from earlier work.

Consider `CCn1cc(C(=O)O)c(=O)c2cc(F)c(N3CCNCC3)cc21` [Norfloxacin], for which the MIC against E. coli CA8000 was < 0.05 µg/mL; with E. coli DH5a, 20 µg/mL (≈ 62.6 µM); against E. coli ET8000 it was 50 µg/mL (≈ 157 µM); against E. coli NK5819, 25 µg/mL (≈ 78.3 µM); in the experiment on E. coli mutant CA80010 it was 15 µg/mL (≈ 47 µM); with E. coli mutant CA80012, 15 µg/mL (≈ 47 µM). In addition, the MIC against E. coli mutant CA8001 is 15 µg/mL (≈ 47 µM); in the experiment on E. coli mutant CA8002 it was 15 µg/mL (≈ 47 µM); with E. coli mutant CA8003, 15 µg/mL (≈ 47 µM); in the experiment on E. coli mutant CA8005, 10 µg/mL (≈ 31.3 µM); in the experiment on E. coli mutant CA8006 it was 20 µg/mL (≈ 62.6 µM); with E. coli mutant CA8007, 15 µg/mL (≈ 47 µM). In the experiment on E. coli mutant CA8009, this compound showed an MIC of 15 µg/mL (≈ 47 µM).
Turning to `C[C@@H]1CN(c2c(F)c(N)c3c(=O)c(C(=O)O)cn(C4CC4)c3c2F)C[C@H](C)N1` [Sparfloxacin], the MIC against E. coli CA8000 was < 0.05 µg/mL; against E. coli DH5a, 10 µg/mL (≈ 25.5 µM); against E. coli ET8000, 20 µg/mL (≈ 51 µM); in the experiment with E. coli NK5819, 10 µg/mL (≈ 25.5 µM); with E. coli mutant CA80010, 40 µg/mL (≈ 102 µM); with E. coli mutant CA80012, 40 µg/mL (≈ 102 µM). The MIC in the experiment on E. coli mutant CA8001 came to 20 µg/mL (≈ 51 µM); in the experiment on E. coli mutant CA8002 it was 20 µg/mL (≈ 51 µM); with E. coli mutant CA8003, 20 µg/mL (≈ 51 µM); in the experiment on E. coli mutant CA8005 it was 20 µg/mL (≈ 51 µM); in the experiment on E. coli mutant CA8006 it was 40 µg/mL (≈ 102 µM); against E. coli mutant CA8007 it was 20 µg/mL (≈ 51 µM). Further, the MIC against E. coli mutant CA8009 worked out at 40 µg/mL (≈ 102 µM).
Regarding `CCO[C@H]1O[C@@H]2O[C@@]3(C)CC[C@H]4[C@H](C)CC[C@@H]([C@H]1C)[C@@]24OO3` [arteethers, arteether], the “Sensitivity or resistance of the strain (words)” value in experiment [1] is recorded as “resistant”. Also, the “Potency relative to artemisinin” value in the experiment on malaria is 2-3 times.
